{"source": "ChEMBL document CHEMBL1681662", "about": "“A new structural alert for benzimidazoles: 2,6-dimethylphenyl substituents increase mutagenic potential and time-dependent CYP3A4 inhibition risk” (Bioorg Med Chem Lett, 2011)", "key": {"Salmonella typhimurium [1]": {"system": "Salmonella typhimurium", "assay": "Mutagenic activity in Salmonella Typhimurium TA98 assessed as fold increase in maximum revertant at 100 ug by Ames test", "format": "functional, Salmonella enterica subsp. enterica serovar Typhimurium"}, "Salmonella typhimurium [2]": {"system": "Salmonella typhimurium", "assay": "Mutagenic activity in Salmonella Typhimurium TA98 assessed as fold increase in maximum revertant at 300 ug by Ames test in presence of S9 fraction", "format": "functional, Salmonella enterica subsp. enterica serovar Typhimurium"}, "Cytochrome P450 3A4 [3]": {"target": "T1, Cytochrome P450 3A4 (Homo sapiens, UniProt P08684)", "T1 sequence (P08684 whole entry)": "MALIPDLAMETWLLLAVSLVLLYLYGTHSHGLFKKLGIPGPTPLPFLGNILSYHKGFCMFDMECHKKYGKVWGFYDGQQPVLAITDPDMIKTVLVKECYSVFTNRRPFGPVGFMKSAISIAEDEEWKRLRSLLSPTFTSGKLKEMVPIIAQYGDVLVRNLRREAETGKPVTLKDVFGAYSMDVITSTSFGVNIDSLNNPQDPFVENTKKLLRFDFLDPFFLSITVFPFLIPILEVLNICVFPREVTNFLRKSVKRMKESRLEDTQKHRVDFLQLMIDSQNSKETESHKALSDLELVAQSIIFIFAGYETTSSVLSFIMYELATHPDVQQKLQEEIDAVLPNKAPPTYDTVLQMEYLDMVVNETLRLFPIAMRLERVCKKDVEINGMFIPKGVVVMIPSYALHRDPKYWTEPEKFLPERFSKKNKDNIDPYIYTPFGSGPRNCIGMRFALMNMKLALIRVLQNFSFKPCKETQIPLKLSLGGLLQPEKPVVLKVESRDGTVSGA", "assay": "Inhibition of CYP3A4", "format": "ADME"}, "Cytochrome P450 3A4 [4]": {"target": "T1, Cytochrome P450 3A4", "assay": "Inhibition of CYP3A4 in human liver microsome measured after 30 mins preincubation in presence of NADPH", "format": "ADME, microsomes"}, "Salmonella typhimurium [5]": {"system": "Salmonella typhimurium", "assay": "Mutagenic activity in Salmonella Typhimurium TA100 assessed as fold increase in maximum revertant at 1000 ug by Ames test", "format": "functional"}, "Salmonella typhimurium [6]": {"system": "Salmonella typhimurium", "assay": "Mutagenic activity in Salmonella Typhimurium TA100 assessed as fold increase in maximum revertant at 1000 ug by Ames test in presence of S9 fraction", "format": "functional"}, "[7]": {"details": "Salmonella enterica subsp. enterica serovar Typhimurium"}}, "note": "Activity calls are given as the source filed them. The calls are words filed in the database; no cut-off is given here."}
{"smiles": "Cc1cc(CCC(=O)O)cc(C)c1-c1nc2ccc(C(=O)Nc3ccc4ccccc4n3)cc2[nH]1", "values": [{"measurement": "fold change (FC)", "setting": "Salmonella typhimurium [1]", "value": 5.86}, {"measurement": "fold change (FC)", "setting": "Salmonella typhimurium [2]", "value": 14.57}]}
{"smiles": "Cc1cccc(C)c1-c1nc2ccc(C(=O)Nc3ccc4ccccc4n3)cc2[nH]1", "values": [{"measurement": "IC50", "setting": "Cytochrome P450 3A4 [3]", "value": 7.3, "unit": "µM"}, {"measurement": "IC50", "setting": "Cytochrome P450 3A4 [4]", "value": 2.7, "unit": "µM"}]}
{"smiles": "O=C(O)CCc1cc(Cl)c(-c2nc3ccc(C(=O)Nc4ccc5ccccc5n4)cc3[nH]2)c(Cl)c1", "values": [{"measurement": "Activity", "setting": "Salmonella typhimurium [1]; [7]", "value": "inactive"}, {"measurement": "Activity", "setting": "Salmonella typhimurium [2]; [7]", "value": "inactive"}]}
{"smiles": "Cc1ccccc1-c1nc2ccc(C(=O)Nc3ccc4ccccc4n3)cc2[nH]1", "values": [{"measurement": "IC50", "setting": "Cytochrome P450 3A4 [3]", "value": "> 50", "unit": "µM"}, {"measurement": "IC50", "setting": "Cytochrome P450 3A4 [4]", "value": "> 50", "unit": "µM"}]}
{"smiles": "O=C(Nc1ccc2ccccc2n1)c1ccc2nc(-c3c(Cl)cc(CCCP(=O)(O)O)cc3Cl)[nH]c2c1", "values": [{"measurement": "Activity", "setting": "Salmonella typhimurium [5]; [7]", "value": "inactive"}, {"measurement": "Activity", "setting": "Salmonella typhimurium [6]; [7]", "value": "inactive"}]}
{"smiles": "Cc1cc(CCCP(=O)(O)O)cc(C)c1-c1nc2ccc(C(=O)Nc3ccc4ccccc4n3)cc2[nH]1", "values": [{"measurement": "fold change (FC)", "setting": "Salmonella typhimurium [5]", "value": 2.48}, {"measurement": "fold change (FC)", "setting": "Salmonella typhimurium [6]", "value": 2}]}
